pIC50: −log10 of the molar value. In brackets after ≈: the same amount, converted by molar mass.
Experiments:
[1] = Antioxidant activity assessed as inhibition of H2O2 radical scavenging activity incubated for 60 mins by UV-spectrophotometric method relative to control; assay type: functional
[2] = Antioxidant activity assessed as inhibition of H2O2 radical scavenging activity incubated for 60 mins by UV-spectrophotometric method; assay type: functional
INS1(832/13) [3] = assay: cells; settings: Rattus norvegicus, INS-1 832/13, 2 h
Description: Antidiabetic activity in glucose-treated rat INS1(832/13) cells assessed as increase in insulin release in presence of 3 mM glucose measured after 2 hrs by radioimmunoassay

INS1(832/13) [4] = assay: Cytotoxicity against rat INS1(832/13) cells assessed as cell viability at 3.5 nM in RPMI medium incubated for over night followed by insulin addition by Alamar Blue assay; assay type: cell-based; settings: 0.0035 µM
INS1(832/13) [5] = assay: Cytotoxicity against rat INS1(832/13) cells assessed as cell viability upto 3 nM in RPMI medium incubated for over night followed by insulin addition by Alamar Blue assay; assay type: cell-based
INS1(832/13) [6] = assay: Antidiabetic activity in glucose-treated rat INS1(832/13) cells assessed as increase in insulin release at 1 ug/ml in presence of 3 mM glucose measured after 2 hrs by radioimmunoassay (reference value: 52.25 +/- 2.15 %); assay type: functional
INS1(832/13) [7] = assay: Antidiabetic activity in glucose-treated rat INS1(832/13) cells assessed as increase in insulin release at 10 ug/ml in presence of 3 mM glucose measured after 2 hrs by radioimmunoassay (reference value: 52.25 +/- 2.15 %); assay type: functional

IC50 [2] [µg/mL]	SMILES	inhibition [1] [%]	pIC50 (INS1(832/13) [3])	Activity (INS1(832/13) [4])	Activity (INS1(832/13) [5])	inhibition (INH) (INS1(832/13) [6]) [%]	inhibition (INH) (INS1(832/13) [7]) [%]
85.5 (≈ 200 µM)	Cc1cccc(-c2nnc3ccc(N4CCN(Cc5ccccc5)C(C(=O)O)C4)nn23)c1 (stereo unspecified)	69.4	–	–	–	–	–
10.8 (≈ 29 µM)	Cc1cccc(-c2nnc3ccc(N4CCN(S(C)(=O)=O)CC4)nn23)c1	84.2	–	–	–	–	–
25.4 (≈ 75.3 µM)	Cc1cccc(-c2nnc3ccc(N4CCN(CCN)CC4)nn23)c1	78.2	–	–	–	–	–
45.9 (≈ 115 µM)	COc1ccc(N2CCN(c3ccc4nnc(-c5cccc(C)c5)n4n3)CC2)cc1	75.6	–	–	–	–	–
15.8 (≈ 32.6 µM)	Cc1cccc(-c2nnc3ccc(N4CCN(C(=O)OC(C)(C)C)C(Cc5ccccc5)C4)nn23)c1 (stereo unspecified)	80.1	–	–	–	–	–
16.8 (≈ 43.9 µM)	Cc1cccc(-c2nnc3ccc(N4CCN(CCOCCO)CC4)nn23)c1	83.2	–	–	–	–	–
–	CCOc1cc(CC(=O)N[C@@H](CC(C)C)c2ccccc2N2CCCCC2)ccc1C(=O)O [REPAGLINIDE]	–	5.90	–	–	96.16	99.05
28.6 (≈ 85 µM)	CC(=O)N1CCN(c2ccc3nnc(-c4cccc(C)c4)n3n2)CC1	78.2	–	–	–	–	–
13.4 (≈ 34.9 µM)	Cc1cccc(-c2nnc3ccc(N4CCN(Cc5ccccc5)CC4)nn23)c1	86.2	–	–	–	–	–
25.3 (≈ 144 µM)	O=C1O[C@H]([C@@H](O)CO)C(O)=C1O [ASCORBIC ACID]	–	–	–	–	–	–

SMILES	IC50 [2] [µg/mL]	inhibition [1] [%]	pIC50 (INS1(832/13) [3])	Activity (INS1(832/13) [4])	Activity (INS1(832/13) [5])	inhibition (INH) (INS1(832/13) [6]) [%]	inhibition (INH) (INS1(832/13) [7]) [%]
Cc1cccc(-c2nnc3ccc(N4CCN(C(c5ccccc5)c5ccccc5)CC4)nn23)c1	1.75 (≈ 3.8 µM)	93.2	8.32	–	–	–	–
Cc1cccc(-c2nnc3ccc(N4CCN(C(=O)c5ccccc5)CC4)nn23)c1	2.25 (≈ 5.65 µM)	94.1	8.82	Toxic	Non-Toxic	–	–
CCOC(=O)N1CCN(c2ccc3nnc(-c4cccc(C)c4)n3n2)CC1	1 (≈ 2.73 µM)	96.8	8.55	Toxic	Non-Toxic	–	–
Cc1cccc(-c2nnc3ccc(N4CCN(Cc5ccc(F)cc5)CC4)nn23)c1	2 (≈ 4.97 µM)	91.2	8.41	–	–	–	–

From ChEMBL document CHEMBL4376848, “Synthesis and discovery of triazolo-pyridazine-6-yl-substituted piperazines as effective anti-diabetic drugs; evaluated over dipeptidyl peptidase-4 inhibition mechanism and insulinotropic activities” (Eur J Med Chem, 2020)
